Laboratory results reported in ChEMBL document CHEMBL4038289, “Y-shaped bis-arylethenesulfonic acid esters: Potential potent and membrane permeable protein tyrosine phosphatase 1B inhibitors” (Bioorg Med Chem Lett, 2017).

Tests used:
[1] = biological target: T1, Tyrosine-protein phosphatase non-receptor type 1 (Homo sapiens, UniProt P18031); assay: Inhibition of recombinant PTP1B (unknown origin) expressed in Escherichia coli using pNPP as substrate measured after 30 mins
T1 sequence (P18031 whole entry): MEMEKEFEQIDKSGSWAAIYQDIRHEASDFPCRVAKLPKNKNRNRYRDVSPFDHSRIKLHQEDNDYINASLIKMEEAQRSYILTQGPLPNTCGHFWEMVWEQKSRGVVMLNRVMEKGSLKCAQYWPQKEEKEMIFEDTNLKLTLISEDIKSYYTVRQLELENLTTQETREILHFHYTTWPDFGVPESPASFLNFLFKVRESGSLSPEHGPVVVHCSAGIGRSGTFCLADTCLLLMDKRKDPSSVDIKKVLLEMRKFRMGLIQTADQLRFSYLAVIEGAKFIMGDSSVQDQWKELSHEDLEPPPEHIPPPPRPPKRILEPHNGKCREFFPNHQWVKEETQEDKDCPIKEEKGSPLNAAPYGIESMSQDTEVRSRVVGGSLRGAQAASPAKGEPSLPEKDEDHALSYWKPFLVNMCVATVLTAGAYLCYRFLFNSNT

[2] = biological target: T2, Tyrosine-protein phosphatase non-receptor type 2 (Homo sapiens, UniProt P17706); assay: Inhibition of recombinant TCPTP (unknown origin) using pNPP as substrate measured after 30 mins
T2 sequence (P17706 whole entry): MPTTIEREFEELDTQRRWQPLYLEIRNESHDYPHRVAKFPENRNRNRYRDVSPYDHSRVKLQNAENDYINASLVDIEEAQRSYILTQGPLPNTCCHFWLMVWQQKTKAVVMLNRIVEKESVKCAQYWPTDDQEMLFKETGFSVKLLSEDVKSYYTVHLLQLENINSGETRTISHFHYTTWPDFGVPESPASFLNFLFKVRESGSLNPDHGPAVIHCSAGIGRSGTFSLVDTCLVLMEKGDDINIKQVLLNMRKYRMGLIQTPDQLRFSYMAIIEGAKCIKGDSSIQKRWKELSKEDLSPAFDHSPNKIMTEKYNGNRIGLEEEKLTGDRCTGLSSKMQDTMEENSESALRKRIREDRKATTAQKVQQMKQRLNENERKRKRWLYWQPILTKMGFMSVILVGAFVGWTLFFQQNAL

[3] = biological target: T3, Tyrosine-protein phosphatase non-receptor type 11 (Homo sapiens, UniProt Q06124); assay: Inhibition of recombinant SHP2 (unknown origin) using pNPP as substrate measured after 30 mins
T3 sequence (Q06124 whole entry): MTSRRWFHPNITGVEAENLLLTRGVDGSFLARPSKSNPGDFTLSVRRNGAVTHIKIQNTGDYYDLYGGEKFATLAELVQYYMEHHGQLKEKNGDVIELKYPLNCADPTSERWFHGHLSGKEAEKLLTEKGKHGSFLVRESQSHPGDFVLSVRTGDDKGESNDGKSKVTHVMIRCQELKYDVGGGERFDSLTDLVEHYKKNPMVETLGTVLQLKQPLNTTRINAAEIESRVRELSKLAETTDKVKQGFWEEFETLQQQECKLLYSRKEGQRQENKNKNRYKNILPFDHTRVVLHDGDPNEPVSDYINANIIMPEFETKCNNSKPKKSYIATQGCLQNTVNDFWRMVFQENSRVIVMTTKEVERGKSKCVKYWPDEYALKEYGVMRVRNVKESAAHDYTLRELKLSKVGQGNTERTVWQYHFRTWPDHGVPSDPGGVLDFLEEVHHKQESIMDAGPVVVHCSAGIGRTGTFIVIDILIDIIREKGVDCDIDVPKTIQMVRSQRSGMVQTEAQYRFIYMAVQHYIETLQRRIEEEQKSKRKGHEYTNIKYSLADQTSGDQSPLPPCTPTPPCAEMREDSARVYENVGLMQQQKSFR

[4] = organism: Homo sapiens; assay: Selectivity ratio of IC50 for recombinant TCPTP (unknown origin) to IC50 for recombinant PTP1B (unknown origin) expressed in Escherichia coli
[5] = Apparent permeability of compound at 20 uM at pH 7.4 after 16 hrs by PAMPA; format: physicochemical
[6] = organism: Homo sapiens; assay: Selectivity ratio of IC50 for recombinant SHP2 (unknown origin) to IC50 for recombinant PTP1B (unknown origin) expressed in Escherichia coli

SMILES | IC50 [1] [nM] | other results
CCOS(=O)(=O)/C=C/c1ccc(OCc2ccc(COc3ccc(/C=C/S(=O)(=O)OCC)cc3)c(C(=O)Nc3ccc(Oc4ccccc4)cc3)c2)cc1 | 860 | 
CCOS(=O)(=O)/C=C/c1ccc(OCc2ccc(COc3ccc(/C=C/S(=O)(=O)OCC)cc3)c(C(=O)Nc3ccc(Oc4ccc(Cl)cc4)cc3)c2)cc1 | 400 | IC50 [2]: 2970 nM; IC50 [3]: 940 nM; Ratio IC50 [4]: 5 to 9; Papp at 16 h, 20 µM [5]: 9.1 ×10⁻⁶ cm/s
CCOS(=O)(=O)/C=C/c1ccc(OCc2ccc(COc3ccc(/C=C/S(=O)(=O)OCC)cc3)c(C(=O)OC)c2)cc1 | 3400 | 
CCOS(=O)(=O)/C=C/c1ccc(OCc2ccc(COc3ccc(/C=C/S(=O)(=O)OCC)cc3)c(C(=O)Nc3ccc(Oc4ccc(C(C)(C)C)cc4)cc3)c2)cc1 | 910 | 
CCOS(=O)(=O)/C=C/c1ccc(OCCCOc2ccc(/C=C/S(=O)(=O)OCC)cc2)cc1 | 37300 | 
CCOS(=O)(=O)/C=C/c1ccc(OCc2ccc(COc3ccc(/C=C/S(=O)(=O)OCC)cc3)c(C(=O)Nc3ccc(Oc4ccccc4C(F)(F)F)cc3)c2)cc1 | 870 | 
CCOS(=O)(=O)/C=C/c1ccc(OCCCCOc2ccc(/C=C/S(=O)(=O)OCC)cc2)cc1 | > 100000 | 
CCOS(=O)(=O)/C=C/c1ccc(OCc2ccc(COc3ccc(/C=C/S(=O)(=O)OCC)cc3)c(C(=O)Nc3ccc(Oc4ccc(-c5ccccc5)cc4)cc3)c2)cc1 | 140 | Ratio IC50 [6]: 5 to 6; IC50 [2]: 1290 nM; IC50 [3]: 920 nM; Ratio IC50 [4]: 5 to 9; Papp at 16 h, 20 µM [5]: 9.7 ×10⁻⁶ cm/s
CCOS(=O)(=O)/C=C/c1ccc(OCc2cccc(COc3ccc(/C=C/S(=O)(=O)OCC)cc3)c2)cc1 | 18400 | 
CCOS(=O)(=O)/C=C/c1ccc(OCc2ccc(COc3ccc(/C=C/S(=O)(=O)OCC)cc3)c(C(=O)Nc3ccc(Oc4cccc(-c5ccccc5)c4)cc3)c2)cc1 | 1100 | 
CCOS(=O)(=O)/C=C/c1ccc(OCCOc2ccc(/C=C/S(=O)(=O)OCC)cc2)cc1 | 3000 | 
CCOS(=O)(=O)/C=C/c1ccc(OC2CCC(Oc3ccc(/C=C/S(=O)(=O)OCC)cc3)CC2)cc1 (stereo not given) | 29200 | 
CCOS(=O)(=O)/C=C/c1ccc(OCc2ccc(COc3ccc(/C=C/S(=O)(=O)OCC)cc3)c(C(=O)Nc3ccc(C(C)C)cc3)c2)cc1 | 1300 | 
CCOS(=O)(=O)/C=C/c1ccc(OCc2ccc(COc3ccc(/C=C/S(=O)(=O)OCC)cc3)c(C(=O)Nc3ccc(OC)cc3)c2)cc1 | 2600 | 
CC(C)NCC(O)COc1cccc2ccccc12 (stereo not given) [PROPRANOLOL] |  | Papp at 16 h, 20 µM [5]: 18.7 ×10⁻⁶ cm/s
CCOS(=O)(=O)/C=C/c1ccc(OCc2ccc(COc3ccc(/C=C/S(=O)(=O)OCC)cc3)c(C(=O)Nc3ccccc3)c2)cc1 | 1400 | 
CCOS(=O)(=O)/C=C/c1ccc(OCc2ccc(COc3ccc(/C=C/S(=O)(=O)OCC)cc3)c(C(=O)Nc3ccc(Oc4ccc(C(F)(F)F)cc4)cc3)c2)cc1 | 820 | 
CCOS(=O)(=O)/C=C/c1ccc(OCc2ccc(COc3ccc(/C=C/S(=O)(=O)OCC)cc3)c(C(=O)Nc3ccc(F)cc3)c2)cc1 | 1100 | 
CCOS(=O)(=O)/C=C/c1ccc(OCc2ccc(COc3ccc(/C=C/S(=O)(=O)OCC)cc3)c(C(=O)Nc3ccc(Oc4cccc(C(F)(F)F)c4)cc3)c2)cc1 | 350 | Ratio IC50 [6]: 5 to 6; IC50 [2]: 1620 nM; IC50 [3]: 1700 nM; Ratio IC50 [4]: 5 to 9; Papp at 16 h, 20 µM [5]: 6.9 ×10⁻⁶ cm/s
CCOS(=O)(=O)/C=C/c1ccc(OCc2ccc(COc3ccc(/C=C/S(=O)(=O)OCC)cc3)c(C(=O)Nc3ccc(Oc4ccc5ccccc5c4)cc3)c2)cc1 | 790 | 
CCOS(=O)(=O)/C=C/c1ccc(OCc2ccc(COc3ccc(/C=C/S(=O)(=O)OCC)cc3)c(C(=O)Nc3ccc(Oc4ccccc4F)cc3)c2)cc1 | 850 | 
CCOS(=O)(=O)/C=C/c1ccc(OCc2ccc(COc3ccc(/C=C/S(=O)(=O)OCC)cc3)c(C(=O)Nc3ccc(Oc4ccc(F)cc4)cc3)c2)cc1 | 1300 | 
CCOS(=O)(=O)/C=C/c1ccc(Oc2ccc(/C=C/S(=O)(=O)OCC)cc2)cc1 | 11800 | 
CCOS(=O)(=O)/C=C/c1ccc(OCc2ccc(COc3ccc(/C=C/S(=O)(=O)OCC)cc3)c(C(=O)Nc3ccc(Oc4ccc(Br)cc4Cl)cc3)c2)cc1 | 160 | Ratio IC50 [6]: 5 to 6; IC50 [2]: 1430 nM; IC50 [3]: 1050 nM; Ratio IC50 [4]: 5 to 9; Papp at 16 h, 20 µM [5]: 12.6 ×10⁻⁶ cm/s
CCOS(=O)(=O)/C=C/c1ccc(OCOc2ccc(/C=C/S(=O)(=O)OCC)cc2)cc1 | 8700 | 
CCOS(=O)(=O)/C=C/c1ccc(OCc2ccc(COc3ccc(/C=C/S(=O)(=O)OCC)cc3)cc2)cc1 | 1200 | IC50 [2]: 3390 nM; IC50 [3]: 4700 nM
CCOS(=O)(=O)/C=C/c1ccc(OCc2ccc(COc3ccc(/C=C/S(=O)(=O)OCC)cc3)c(C(=O)O)c2)cc1 | 1300 | 
CCOS(=O)(=O)/C=C/c1ccc(OCc2ccc(COc3ccc(/C=C/S(=O)(=O)OCC)cc3)c(C(=O)Nc3ccc(Oc4ccc(CC)cc4)cc3)c2)cc1 | 190 | Ratio IC50 [6]: 5 to 6; IC50 [2]: 1320 nM; IC50 [3]: 1100 nM; Ratio IC50 [4]: 5 to 9; Papp at 16 h, 20 µM [5]: 8.5 ×10⁻⁶ cm/s
CCOS(=O)(=O)/C=C/c1ccc(OCc2ccc(COc3ccc(/C=C/S(=O)(=O)OCC)cc3)c(C(=O)Nc3ccc(Oc4ccc(C(C)C)cc4)cc3)c2)cc1 | 750 | 
